Assay results: patent US11518750B2, “3-methylideneoxan-4-one compounds and substituted derivatives thereof as inhibitors of telomerase” (NORTHWESTERN UNIVERSITY, priority 2019, dated 2022)

Columns and labels:
N-acetyl cysteine (NAC) = assay: physchem; assay type: physicochemical; conditions: pH 7.4
Method: N-Acetyl Cysteine, N-Acetyl Lysine and N-Acetyl Serine Kinetic Studies. Assay was conducted as described with minor modifications.^81-84 Briefly, a 1 mM stock solution of NU-1 with internal standard (phenacetin) in DMSO was added to a 50 mM solution of either N-acetyl cysteine, N-acetyl lysine or N-acetyl serine in 67 mM phosphate buffer (pH 7.4), as well as added to a solution of 67 mM phosphate buffer (pH 7.4) control. Samples were taken every 2 min for 2 h and quenched immediately with MeOH and centrifuged upon sampling. Samples were placed on a Waters Acquity UPLC-MS system and measured for the ratio of NU-1 to internal standard intensity to calculate the amount of NU-1 present at each time point relative to the amount of NU-1 at the first injection of the compound in buffer. Assay was conducted in triplicate.

telomerase in MCF7 cells = target: T1, telomerase in MCF7 cells (Homo sapiens, UniProt O14746); assay: Compound washout TRAP analysis; assay type: cell-based
T1 construct: endogenous in cells; host or cells: MCF-7
Method: Compound Washout TRAP analysis. MCF-7 cells were plated in 96 well plates and allowed to attach for 24 h. Media was removed, and fresh media containing various concentrations of compound was added, and the plate was incubated for 24 h. Media was removed, cells were washed 2 times with PBS, and fresh media without compound was added. Cells were incubated at 37° C. for an additional “X” hours. […] The cell extract was then centrifuged at 12,000 g for 20 min at 4° C. to remove cell debris. Note: “fresh” media constitutes media supplemented with 10% Fetal Bovine Serum (FBS) and 1% pen/strep that has not been previously used for cell culture (e.g., not conditioned media”). TRAP analysis was conducted as above.

[1] = Liver microsomal stability assay; assay type: in vitro ADME; conditions: in words
Method: Liver Microsomal Stability Assay. Assay was conducted using the Corning UltraPool HLM 150 Mixed Gender microsomal kit (Corning Life Sciences) according to the manufacturer's protocol.

[2] = target: T2, telomerase in MCF7 cells in culture (Homo sapiens, UniProt O14746); assay: TRAP assay in cultured cells; assay type: cell-based; conditions: TRAP assay, MCF7 cells in culture
T2 construct: endogenous in cells; host or cells: MCF-7
Method: Telomeric Repeat Amplification Protocol Assay. The telomeric repeat amplification protocol (TRAP) assay was performed using the TRAPeze RT Telomerase Detection Kit (EMD Millipore) and iTaq DNA polymerase (Bio-Rad) according to the manufacturer's protocol.
Cultured Cells TRAP Analysis. MCF-7, HeLa, ACHN, MDA-MB231 and A549 cells were cultured in DMEM media supplemented with 10% Fetal Bovine Serum (FBS), 1% pen/strep and with 5% CO2 and 37° C. Cells were plated in 96 well plates and allowed to attach for 24 h. Media was removed, and fresh media containing various concentrations of compound was added, and the plate was incubated for 24 h. […] The cell extract was then centrifuged at 12,000×g for 20 min at 4° C. to remove cell debris. Note: “fresh” media constitutes media supplemented with 10% Fetal Bovine Serum (FBS) and 1% pen/strep that has not been previously used for cell culture (e.g., not conditioned media). TRAP analysis was conducted as above.

tcTERT = assay: Protease digestion and mass spectrometry of treated tcTERT; assay type: binding, Tribolium castaneum; conditions: proteolysis and tandem mass spectrometry
Method: Protease Digestion and Mass Spectrometry Analysis. tcTERT (50 μg, ˜600 pmol) was treated with chrolactomycin, NU-1, helenalin, costunolide or DMSO for 1 hr at 37° C. The reaction was diluted with ammonium bicarbonate buffer (pH 8.0), then reduced for 30 min at 56° C. with 10 mM DTT. After cooling to 23° C., the protein was alkylated with 25 mM iodoacetamide for 30 min at 23° C. in the dark, followed by trypsin digestion (2.5 μg, Promega) overnight at 37° C. Digested peptides (˜2 pmol) were injected onto a self-packed precolumn (4 cm POROS10R2) and eluted into the mass spectrometer (LTQ Orbitrap Velos, Thermo Fisher). Peptides were subjected to MS^2 by CAD (electron multiplier detection, relative collision energy 35%, q=0.25).

Lipophilicity = assay type: physicochemical; conditions: in words
MCF-7 cells = assay: Compound washout cell viability; assay type: cell-based, human; conditions: washed, fresh media, 24 h
Method: Compound Washout Cell Viability Measurements. MCF-7 cells were plated in 96 well plates and allowed to attach for 24 h. Media was removed, and fresh media containing various concentrations of compound was added, and the plate was incubated for 24 h. Media was removed, cells were washed 2 times with PBS, and fresh media without compound was added. Cells were incubated at 37° C. for an additional “X” h and analyzed as above. Note: “fresh” media constitutes media supplemented with 10% Fetal Bovine Serum (FBS) and 1% pen/strep that has not been previously used for cell culture (e.g., not conditioned media).

T1 sequence (O14746 whole entry): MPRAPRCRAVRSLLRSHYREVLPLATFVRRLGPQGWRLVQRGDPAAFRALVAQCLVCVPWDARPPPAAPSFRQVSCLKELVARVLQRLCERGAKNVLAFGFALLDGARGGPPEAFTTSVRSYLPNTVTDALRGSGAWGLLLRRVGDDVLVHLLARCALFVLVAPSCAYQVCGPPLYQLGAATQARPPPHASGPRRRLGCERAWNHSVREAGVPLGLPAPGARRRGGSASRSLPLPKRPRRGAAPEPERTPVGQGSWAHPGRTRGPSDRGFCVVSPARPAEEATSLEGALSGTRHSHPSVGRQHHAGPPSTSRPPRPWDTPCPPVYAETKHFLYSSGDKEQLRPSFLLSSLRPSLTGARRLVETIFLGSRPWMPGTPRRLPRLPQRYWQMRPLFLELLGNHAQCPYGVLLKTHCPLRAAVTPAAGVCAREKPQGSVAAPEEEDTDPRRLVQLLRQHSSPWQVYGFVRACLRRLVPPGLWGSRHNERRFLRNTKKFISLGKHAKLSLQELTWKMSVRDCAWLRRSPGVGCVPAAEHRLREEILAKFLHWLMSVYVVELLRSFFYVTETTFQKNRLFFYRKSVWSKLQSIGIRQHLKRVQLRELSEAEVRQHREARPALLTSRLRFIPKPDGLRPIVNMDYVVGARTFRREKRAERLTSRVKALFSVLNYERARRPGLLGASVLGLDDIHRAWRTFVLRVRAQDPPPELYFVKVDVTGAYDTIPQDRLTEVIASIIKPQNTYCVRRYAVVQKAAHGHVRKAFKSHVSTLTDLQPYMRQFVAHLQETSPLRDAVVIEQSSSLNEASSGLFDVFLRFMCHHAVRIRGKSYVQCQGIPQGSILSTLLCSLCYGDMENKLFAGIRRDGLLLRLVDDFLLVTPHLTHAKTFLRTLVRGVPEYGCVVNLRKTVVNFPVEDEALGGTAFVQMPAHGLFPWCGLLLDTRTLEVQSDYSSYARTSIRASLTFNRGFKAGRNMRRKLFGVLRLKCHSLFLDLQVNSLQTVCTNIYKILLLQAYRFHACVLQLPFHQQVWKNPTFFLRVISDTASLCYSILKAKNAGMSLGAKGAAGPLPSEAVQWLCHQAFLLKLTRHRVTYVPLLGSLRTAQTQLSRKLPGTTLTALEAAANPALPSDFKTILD
T1 sequence (O60832 whole entry partner): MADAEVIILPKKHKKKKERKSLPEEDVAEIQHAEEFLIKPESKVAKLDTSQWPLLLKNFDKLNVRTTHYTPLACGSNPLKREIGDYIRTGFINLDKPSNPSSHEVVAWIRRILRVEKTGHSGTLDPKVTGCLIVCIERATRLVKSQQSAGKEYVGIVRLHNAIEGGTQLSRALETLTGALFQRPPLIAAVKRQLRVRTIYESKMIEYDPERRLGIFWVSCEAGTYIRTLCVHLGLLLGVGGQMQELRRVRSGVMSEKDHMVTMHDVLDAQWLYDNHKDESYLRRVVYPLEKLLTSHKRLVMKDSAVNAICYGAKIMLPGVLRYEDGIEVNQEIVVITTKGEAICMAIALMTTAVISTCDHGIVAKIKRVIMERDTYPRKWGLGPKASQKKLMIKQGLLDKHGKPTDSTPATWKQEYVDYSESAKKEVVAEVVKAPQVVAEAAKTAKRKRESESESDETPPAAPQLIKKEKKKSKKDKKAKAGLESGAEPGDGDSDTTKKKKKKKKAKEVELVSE
T1 sequence (Q9NPE3 whole entry partner): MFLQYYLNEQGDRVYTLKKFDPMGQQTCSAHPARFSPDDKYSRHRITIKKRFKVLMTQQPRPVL
T1 sequence (Q9NX24 whole entry partner): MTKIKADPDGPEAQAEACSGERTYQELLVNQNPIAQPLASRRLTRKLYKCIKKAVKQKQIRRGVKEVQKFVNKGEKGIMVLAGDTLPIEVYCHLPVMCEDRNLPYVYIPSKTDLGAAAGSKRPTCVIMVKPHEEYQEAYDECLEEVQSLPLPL
T1 sequence (Q9NY12 whole entry partner): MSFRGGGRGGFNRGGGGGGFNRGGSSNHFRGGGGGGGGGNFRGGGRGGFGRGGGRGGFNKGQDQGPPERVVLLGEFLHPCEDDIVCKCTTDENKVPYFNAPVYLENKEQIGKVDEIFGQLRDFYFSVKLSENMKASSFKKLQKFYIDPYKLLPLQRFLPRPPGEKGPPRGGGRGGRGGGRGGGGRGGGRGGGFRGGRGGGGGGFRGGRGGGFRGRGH
T1 sequence (Q9BUR4 whole entry partner): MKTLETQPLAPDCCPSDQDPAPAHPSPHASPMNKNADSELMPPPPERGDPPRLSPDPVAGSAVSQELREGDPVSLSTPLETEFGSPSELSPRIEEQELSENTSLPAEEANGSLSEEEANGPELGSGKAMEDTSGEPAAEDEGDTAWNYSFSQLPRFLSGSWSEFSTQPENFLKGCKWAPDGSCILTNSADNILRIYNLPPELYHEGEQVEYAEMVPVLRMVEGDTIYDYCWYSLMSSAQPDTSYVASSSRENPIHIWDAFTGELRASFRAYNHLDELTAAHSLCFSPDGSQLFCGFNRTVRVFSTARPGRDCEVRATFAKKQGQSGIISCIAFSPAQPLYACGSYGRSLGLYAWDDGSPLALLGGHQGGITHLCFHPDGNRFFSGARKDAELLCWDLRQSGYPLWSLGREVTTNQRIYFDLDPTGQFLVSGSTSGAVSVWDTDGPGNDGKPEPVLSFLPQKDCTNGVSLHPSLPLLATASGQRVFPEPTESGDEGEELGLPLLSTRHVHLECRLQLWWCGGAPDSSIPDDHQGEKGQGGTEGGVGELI
T2 sequence (O14746 whole entry): as the sequence (O14746 whole entry) above
T2 sequence (O60832 whole entry partner): as the sequence (O60832 whole entry partner) above
T2 sequence (Q9NPE3 whole entry partner): as the sequence (Q9NPE3 whole entry partner) above
T2 sequence (Q9NX24 whole entry partner): as the sequence (Q9NX24 whole entry partner) above
T2 sequence (Q9NY12 whole entry partner): as the sequence (Q9NY12 whole entry partner) above
T2 sequence (Q9BUR4 whole entry partner): as the sequence (Q9BUR4 whole entry partner) above

- half-life at 1 μM (N-acetyl cysteine (NAC)): 42 min
- telomerase activity after washout (telomerase in MCF7 cells; MCF7 cells washed, 4 h recovery): remained blocked
- telomerase activity after washout (telomerase in MCF7 cells; washed, fresh media, 24 h): did not restore
- microsomal stability [1]: satisfactory performance
- IC50 [2]: 0.27 µM
- lipophilicity (Lipophilicity): favorable
Compound: C=C1C(=O)[C@](C)(C(=O)OC)[C@H](CCc2cn(Cc3ccc(F)cc3F)nn2)O[C@@H]1C [NU-1, methyl (2S,3R,6R)-2-(2-(1-(2,4-difluorobenzyl)-1H-1,2,3-triazol-4-yl)ethyl)-3,6-dimethyl-5 methylene-4-oxotetrahydro-2H-pyran-3-carboxylate]
- adduct formation with tcTERT peptides (tcTERT): single modified peptide
- viability after washout (MCF-7 cells): did not restore
